From patent US11098073B2, “Triphenylphosphonium-tethered tetracyclines for use in treating cancer” (Oxford University Innovation Limited, priority 2017, dated 2021) come the findings set out here.

Each structure is given as a SMILES string. Structures can show the parent of a compound that is named as a salt.

The subject of the assay is MDA-231 cancer cells. The assay can be described thus: Inhibition of proliferation assay: cell confluence (IncuCyte live cell imaging). It counts as cell-based. The conditions noted are these: compound tested at 10 μM, images every 3 h over 4-5 d, relative confluence normalised to time zero. The text has this: Inhibition of Proliferation Assay
The confluence value is a surrogate for cell proliferation and growth. The value is expressed as a percent confluence, which represents the fraction of culture dish-surface that is occupied by cells. As the number of cells in the dish increases over time due to proliferation, so will their coverage of that surface increase. Expansion of the cell population on the cell culture-dish surface and confluence have mostly a linear relationship until the cells on the plate surface begin to reach saturation or maximum density.
Confluence is determined based on image analysis. Image based software can identify objects in the image field base on changes to pixel density in a grey scale image. The software can then assign a mask to those pixels within the object. Objects can be ‘gated’ out based on size and shape. To determine cell confluence, images of cells are first masked as objects. The surface area of the image that is masked is measured and compared to the total surface area of the culture dish surface to obtain a percent confluence.
MDA-231 cancer cells were obtained from ATCC. Cells were cultured in Dulbecco's Modified Eagle Medium (DMEM) supplemented with 10% Fetal Bovine Serum (FBS), 2 mM Glutamax, 1 mM Non Essential Amino Acid (NEAA) solution and 1 mM sodium pyruvate. […] Final DMSO concentrations were […]. Images were acquired with an IncuCyte Live Cell Imaging microscopy (Essen Bioscience) at every 3 h under cell culture conditions with 10 OX objective over 4-5 d. Cell confluence was calculated from one field of view per well using the IncuCyte in-built algorithm. Relative confluence values were obtained by normalising each value to the time zero value in each sample.
Take `C[C@H]1c2ccc(CNC(=O)CCCCC[P+](c3ccccc3)(c3ccccc3)c3ccccc3)c(O)c2C(=O)C2=C(O)[C@]3(O)C(=O)C(C(N)=O)=C(O)[C@@H](N(C)C)[C@@H]3[C@@H](O)[C@@H]21` [Example 16, trifluoroacetate]: the “% Confluence” value is reported as 116.3%.

On to `C[C@H]1c2ccc(CNC(=O)CCCCCCC[P+](c3ccccc3)(c3ccccc3)c3ccccc3)c(O)c2C(=O)C2=C(O)[C@]3(O)C(=O)C(C(N)=O)=C(O)[C@@H](N(C)C)[C@@H]3[C@@H](O)[C@@H]21` [Example 17, trifluoroacetate], for which the “% Confluence” value is 79.4%.

Take `C[C@H]1c2ccc(NC(=O)CCCCC[P+](c3ccccc3)(c3ccccc3)c3ccccc3)c(O)c2C(=O)C2=C(O)[C@]3(O)C(=O)C(C(N)=O)=C(O)[C@@H](N(C)C)[C@@H]3[C@@H](O)[C@@H]21.[Cl-]` [Example 18]: the “% Confluence” value turned out to be 59.1%.

For `C[C@H]1c2ccc(NC(=O)CCCCCC[P+](c3ccccc3)(c3ccccc3)c3ccccc3)c(O)c2C(=O)C2=C(O)[C@]3(O)C(=O)C(C(N)=O)=C(O)[C@@H](N(C)C)[C@@H]3[C@@H](O)[C@@H]21.[Cl-]` [Example 19], the “% Confluence” value came to 22.4%.

On to `C[C@H]1c2ccc(NC(=O)CCCCCCCC[P+](c3ccccc3)(c3ccccc3)c3ccccc3)c(O)c2C(=O)C2=C(O)[C@]3(O)C(=O)C(C(N)=O)=C(O)[C@@H](N(C)C)[C@@H]3[C@@H](O)[C@@H]21.[Cl-]` [Example 20], for which the “% Confluence” value came to 25.2%.
